Test results taken from patent US11439622B2 (OXFORD UNIVERSITY INNOVATION LIMITED, priority 2015, dated 2022).
pIC50: −log10 of the molar value. Read-outs that look alike come from different tables or passages of the source.

Key:
Assay type in all cases: biochemical
[1] = target: IMP-1 (Imipenemase-1) (Serratia marcescens, UniProt P52699); test: Enzyme inhibition assay, IMP-1; settings: for IC50: read-out: pIC50 IMP-1 (converted)
Protocol: (§1) The biological activity of the compounds of the present invention was tested using standard assay protocols.^7 The following representative enzymes NDM-1 (New Delhi metallo-β-lactamase-1), IMP-1 (Imipenemase-1) and VIM-2 (Veronese metallo-β-lactamase-2) were selected from different clinically relevant B1 metallo-β-lactamases.

[2] = target: NDM-1 (New Delhi metallo-β-lactamase-1) (Klebsiella pneumoniae, UniProt C7C422); test: Enzyme inhibition assay, NDM-1; settings: for IC50: read-out: pIC50 NDM-1 (converted)
Chain of NDM-1 (New Delhi metallo-β-lactamase-1) (C7C422 29-270, looked up, species assumed): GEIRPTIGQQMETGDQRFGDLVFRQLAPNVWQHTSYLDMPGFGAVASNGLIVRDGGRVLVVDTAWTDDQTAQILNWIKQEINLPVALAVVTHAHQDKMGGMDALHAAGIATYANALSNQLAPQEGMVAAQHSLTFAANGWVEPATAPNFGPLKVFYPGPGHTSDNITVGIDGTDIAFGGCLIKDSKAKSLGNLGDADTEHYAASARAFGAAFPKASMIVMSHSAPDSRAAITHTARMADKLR
Protocol: as §1

[3] = target: VIM-2 (Veronese metallo-β-lactamase-2) (Escherichia coli, UniProt Q5U7L7); test: Enzyme inhibition assay, VIM-2; settings: for IC50: read-out: pIC50 VIM-2 (converted)
Protocol: as §1

Chain of IMP-1 (Imipenemase-1) (P52699 19-246, looked up, species assumed): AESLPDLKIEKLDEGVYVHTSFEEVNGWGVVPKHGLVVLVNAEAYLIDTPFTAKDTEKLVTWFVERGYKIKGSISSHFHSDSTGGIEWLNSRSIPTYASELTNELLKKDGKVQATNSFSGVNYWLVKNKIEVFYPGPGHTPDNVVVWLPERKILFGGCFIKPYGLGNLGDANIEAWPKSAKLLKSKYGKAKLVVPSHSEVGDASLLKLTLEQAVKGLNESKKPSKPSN

Cc1cccc2c(-c3ccncc3)c(C(=O)O)[nH]c12 [Example 4, 7-methyl-3-(pyridin-4-yl)-1H-indole-2-carboxylic acid]
IC50 [1]: 12600 nM | IC50 [2]: 63.1 nM | IC50 [3]: 631 nM

CN(C)S(=O)(=O)c1ccc(-c2c(C(=O)O)[nH]c3c(CCOc4ccccc4)cccc23)cc1 [Example 81, 3-(4-(N,N-dimethylsulfamoyl)phenyl)-7-(2-phenoxyethyl)-1H-indole-2-carboxylic acid]
IC50 [1]: 100 nM | IC50 [2]: 1.58 nM | IC50 [3]: 63.1 nM

Cc1cccc2c(-c3cccc(Br)c3)c(C(=O)O)[nH]c12 [Example 18, 3-(3-bromophenyl)-7-methyl-1H-indole-2-carboxylic acid]
IC50 [1]: 2000 nM | IC50 [2]: 20 nM | IC50 [3]: 50.1 nM

CC(=O)Nc1ccc(-c2c(C(=O)O)[nH]c3c(C)cccc23)cc1 [Example 30, 3-(4-acetamidophenyl)-7-methyl-1H-indole-2-carboxylic acid]
IC50 [1]: 2510 nM | IC50 [2]: 20 nM | IC50 [3]: 158 nM

Cc1cccc2c(-c3ccc(C(F)(F)F)cc3)c(C(=O)O)[nH]c12 [Example 11, 7-methyl-3-(4-(trifluoromethyl)phenyl)-1H-indole-2-carboxylic acid]
IC50 [1]: 12600 nM | IC50 [2]: 31.6 nM | IC50 [3]: 316 nM

CC(C)c1cccc2c(-c3ccc(Cl)cc3)c(C(=O)O)[nH]c12 [Example 71, 3-(4-chlorophenyl)-7-isopropyl-1H-indole-2-carboxylic acid]
IC50 [1]: 39.8 nM | IC50 [2]: 3.98 nM | IC50 [3]: 20 nM

COc1cccc(-c2c(C(=O)O)[nH]c3c(C)cccc23)c1OC [Example 116, 3-(2,3-dimethoxyphenyl)-7-methyl-1H-indole-2-carboxylic acid]
IC50 [1]: > 100000 nM | IC50 [2]: 1260 nM | IC50 [3]: 39.8 nM

CNS(=O)(=O)c1ccc(-c2c(C(=O)O)[nH]c3c(C(C)C)cccc23)cc1 [Example 88, 7-isopropyl-3-(4-(N-methylsulfamoyl)phenyl)-1H-indole-2-carboxylic acid]
IC50 [1]: 53.7 nM | IC50 [2]: 4.27 nM | IC50 [3]: 10.2 nM

Cc1cccc2c(-c3cccc(C(F)(F)F)c3)c(C(=O)O)[nH]c12 [Example 44, 7-methyl-3-(3-(trifluoromethyl)phenyl)-1H-indole-2-carboxylic acid]
IC50 [1]: 3980 nM | IC50 [2]: 31.6 nM | IC50 [3]: 200 nM

CC(C)c1cccc2c(-c3ccc(N4CCOCC4)cc3)c(C(=O)O)[nH]c12 [Example 70, 7-isopropyl-3-(4-morpholinophenyl)-1H-indole-2-carboxylic acid]
IC50 [1]: 10 nM | IC50 [2]: 2.51 nM | IC50 [3]: 79.4 nM

Cc1cccc2c(-c3ccc(Cl)cc3)c(C(=O)O)[nH]c12 [Example 42, 3-(4-chlorophenyl)-7-methyl-1H-indole-2-carboxylic acid]
IC50 [1]: 10000 nM | IC50 [2]: 15.8 nM | IC50 [3]: 251 nM

CC(C)c1cccc2c(-c3ccc(C(=O)N(C)C)cc3)c(C(=O)O)[nH]c12 [Example 74, 3-(4-(dimethylcarbamoyl)phenyl)-7-isopropyl-1H-indole-2-carboxylic acid]
IC50 [1]: 20 nM | IC50 [2]: 0.562 nM | IC50 [3]: 79.4 nM

Cc1cccc2c(-c3ccc(Cl)c(C(F)(F)F)c3)c(C(=O)O)[nH]c12 [Example 43, 3-(4-chloro-3-(trifluoromethyl)phenyl)-7-methyl-1H-indole-2-carboxylic acid]
IC50 [1]: 12600 nM | IC50 [2]: 31.6 nM | IC50 [3]: 158 nM

CC(C)c1cccc2c(-c3ccc(S(=O)(=O)N(C)C)cc3)c(-c3nnn[nH]3)[nH]c12 [Example 102, 4-[7-isopropyl-2-(1H-tetrazol-5-yl)-1H-indol-3-yl]-N,N-dimethyl-benzenesulfonamide]
IC50 [1]: 13200 nM | IC50 [2]: 10 nM | IC50 [3]: 407 nM

Cc1ccc2c(-c3ccc(F)cc3)c(C(=O)O)[nH]c2c1 [Example 119, 3-(4-fluorophenyl)-6-methyl-1H-indole-2-carboxylic acid]
IC50 [1]: 79400 nM | IC50 [2]: 2000 nM | IC50 [3]: 15800 nM

Cc1cccc2c(-c3cccc(S(C)(=O)=O)c3)c(C(=O)O)[nH]c12 [Example 16, 7-methyl-3-(3-(methylsulfonyl)phenyl)-1H-indole-2-carboxylic acid]
IC50 [1]: 12600 nM | IC50 [2]: 50.1 nM | IC50 [3]: 794 nM

Cc1cc(C)c2[nH]c(C(=O)O)c(-c3ccc(F)cc3)c2c1 [Example 59, 3-(4-fluorophenyl)-5,7-dimethyl-1H-indole-2-carboxylic acid]
IC50 [1]: 25100 nM | IC50 [2]: 126 nM | IC50 [3]: 501 nM

CC(C)(C)c1cccc2c(-c3ccc(F)cc3)c(C(=O)O)[nH]c12 [Example 57, 7-(tert-butyl)-3-(4-fluorophenyl)-1H-indole-2-carboxylic acid]
IC50 [1]: 100 nM | IC50 [2]: 79.4 nM | IC50 [3]: 100 nM

COc1ccc2c(-c3ccc(F)cc3)c(C(=O)O)[nH]c2c1C [Example 55, 3-(4-fluorophenyl)-6-methoxy-7-methyl-1H-indole-2-carboxylic acid]
IC50 [1]: 2000 nM | IC50 [2]: 25.1 nM | IC50 [3]: 398 nM

CC(C)c1cccc2c(-c3ccc(S(C)(=O)=O)cc3)c(C(=O)O)[nH]c12 [Example 67, 7-isopropyl-3-(4-(methylsulfonyl)phenyl)-1H-indole-2-carboxylic acid]
IC50 [1]: 39.8 nM | IC50 [2]: 2.51 nM | IC50 [3]: 20 nM

Cc1cccc2c(-c3cccc4[nH]ncc34)c(C(=O)O)[nH]c12 [Example 31, 3-(1H-indazol-4-yl)-7-methyl-1H-indole-2-carboxylic acid]
IC50 [1]: 63100 nM | IC50 [2]: 63.1 nM | IC50 [3]: 39.8 nM

Cc1cccc2c(-c3ccccn3)c(C(=O)O)[nH]c12 [Example 63, 7-methyl-3-(pyridin-2-yl)-1H-indole-2-carboxylic acid]
IC50 [1]: > 100000 nM | IC50 [2]: 316 nM | IC50 [3]: 1000 nM

CC(C)c1cccc2c(-c3ccc(CN4CCOCC4)cc3)c(C(=O)O)[nH]c12 [Example 94, 7-isopropyl-3-(4-(morpholinomethyl)phenyl)-1H-indole-2-carboxylic acid]
IC50 [1]: 105 nM | IC50 [2]: 5.89 nM | IC50 [3]: 105 nM

Cc1cccc2c1cc(C(=O)O)n2-c1ccc(F)cc1 [Example 120, 1-(4-fluorophenyl)-4-methyl-1H-indole-2-carboxylic acid]
IC50 [1]: > 100000 nM | IC50 [2]: > 20000 nM | IC50 [3]: 31600 nM

Cc1cccc2c(Cc3ccc(Cl)cc3)c(C(=O)O)[nH]c12 [Example 107, 3-[(4-chlorophenyl)methyl]-7-methyl-1H-indole-2-carboxylic acid]
IC50 [1]: 3980 nM | IC50 [2]: 631 nM | IC50 [3]: 1580 nM

CC(C)c1cccc2c(-c3ccc(Cn4cccn4)cc3)c(C(=O)O)[nH]c12 [Example 79, 3-(4-((1H-pyrazol-1-yl)methyl)phenyl)-7-isopropyl-1H-indole-2-carboxylic acid]
IC50 [1]: 15.8 nM | IC50 [2]: 0.501 nM | IC50 [3]: 3.98 nM

Cc1cccc2c(C3CCCCC3)c(C(=O)O)[nH]c12 [Example 103]
IC50 [1]: 79400 nM | IC50 [2]: 79.4 nM | IC50 [3]: 3160 nM

Cc1cccc2c(-c3ccc(N)cc3)c(C(=O)O)[nH]c12 [Example 23, 3-(4-aminophenyl)-7-methyl-1H-indole-2-carboxylic acid]
IC50 [1]: 7940 nM | IC50 [2]: 31.6 nM | IC50 [3]: 1000 nM

CC(C)c1cccc2c(-c3ccc(C(=O)O)cc3)c(C(=O)O)[nH]c12 [Example 91, 3-(4-carboxyphenyl)-7-isopropyl-1H-indole-2-carboxylic acid]
IC50 [1]: 44.7 nM | IC50 [2]: 3.39 nM | IC50 [3]: 7.24 nM

Cc1cccc2c(C3CCCC3)c(C(=O)O)[nH]c12 [Example 104, 3-cyclopentyl-7-methyl-1H-indole-2-carboxylic acid]
IC50 [1]: 50100 nM | IC50 [2]: 251 nM | IC50 [3]: 12600 nM

Cc1ccccc1-c1c(C(=O)O)[nH]c2c(C)cccc12 [Example 41, 7-methyl-3-(o-tolyl)-1H-indole-2-carboxylic acid]
IC50 [1]: 1580 nM | IC50 [2]: 316 nM | IC50 [3]: 251 nM

Cc1cccc2c(-c3ccc4cn[nH]c4c3)c(C(=O)O)[nH]c12 [Example 32, 3-(1H-indazol-6-yl)-7-methyl-1H-indole-2-carboxylic acid]
IC50 [1]: 12600 nM | IC50 [2]: 25.1 nM | IC50 [3]: 79.4 nM

CC(C)c1cccc2c(-c3ccccc3)c(C(=O)O)[nH]c12 [Example 66, 7-isopropyl-3-phenyl-1H-indole-2-carboxylic acid]
IC50 [1]: 31.6 nM | IC50 [2]: 5.01 nM | IC50 [3]: 31.6 nM

Cc1cccc2c(-c3cncnc3)c(C(=O)O)[nH]c12 [Example 22, 7-methyl-3-(pyrimidin-5-yl)-1H-indole-2-carboxylic acid]
IC50 [1]: > 100000 nM | IC50 [2]: 126 nM | IC50 [3]: 1260 nM

O=C(O)c1[nH]c2c(CCOc3ccccc3)cccc2c1-c1ccc(Cl)cc1 [Example 84, 3-(4-chlorophenyl)-7-(2-phenoxyethyl)-1H-indole-2-carboxylic acid]
IC50 [1]: 631 nM | IC50 [2]: 37.2 nM | IC50 [3]: 20 nM

Cc1cccc2c(C3=CCNCC3)c(C(=O)O)[nH]c12 [Example 36, 7-methyl-3-(1,2,3,6-tetrahydropyridin-4-yl)-1H-indole-2-carboxylic acid]
pIC50 [1]: < 4.00 | pIC50 [2]: 6.40 | pIC50 [3]: 4.40

O=C(O)c1[nH]c2c(CCO)cccc2c1-c1ccc(F)cc1 [Example 108, 3-(4-fluorophenyl)-7-(2-hydroxyethyl)-1H-indole-2-carboxylic acid]
IC50 [1]: 3160 nM | IC50 [2]: 50.1 nM | IC50 [3]: 794 nM

Cc1noc(C)c1-c1c(C(=O)O)[nH]c2c(C)cccc12 [Example 117, 3-(3,5-dimethylisoxazol-4-yl)-7-methyl-1H-indole-2-carboxylic acid]
IC50 [1]: > 100000 nM | IC50 [2]: 1260 nM | IC50 [3]: 200 nM
